According to ChEMBL document CHEMBL5096143, “Current status in the discovery of dual BET/HDAC inhibitors” (Bioorg Med Chem Lett, 2021):

Assays:
Histone deacetylase 1 = Histone deacetylase 1 (Homo sapiens, UniProt Q13547); assay: Inhibition of HDAC1 (unknown origin)
[1] = target: T1, Bromodomain-containing protein 4 (Homo sapiens, UniProt O60885); assay: Inhibition of BRD4-BD1 (unknown origin)
[2] = target: T1, Bromodomain-containing protein 4; assay: Inhibition of BRD4-BD2 (unknown origin)
[3] = target: T1, Bromodomain-containing protein 4
Description: Inhibition of BRD4 (unknown origin) by ELISA

[4] = target: T1, Bromodomain-containing protein 4; assay: Inhibition of GST-tagged BRD4 (unknown origin) by HTRF assay
U-937 = assay: Cytotoxicity against human U-937 cells assessed as cell viability at 3 uM by MTT assay relative to control; format: functional; details: read-out: Activity
Histone deacetylase = assay: Inhibition of HDAC (unknown origin) by ELISA; format: protein assay, Homo sapiens
Histone deacetylase 3 = Histone deacetylase 3 (Homo sapiens, UniProt O15379); assay: Inhibition of human HDAC3 using Boc-Lys(Ac)-AMC as substrate by fluorescence based assay
Histone deacetylase 3, sequence (O15379 whole entry): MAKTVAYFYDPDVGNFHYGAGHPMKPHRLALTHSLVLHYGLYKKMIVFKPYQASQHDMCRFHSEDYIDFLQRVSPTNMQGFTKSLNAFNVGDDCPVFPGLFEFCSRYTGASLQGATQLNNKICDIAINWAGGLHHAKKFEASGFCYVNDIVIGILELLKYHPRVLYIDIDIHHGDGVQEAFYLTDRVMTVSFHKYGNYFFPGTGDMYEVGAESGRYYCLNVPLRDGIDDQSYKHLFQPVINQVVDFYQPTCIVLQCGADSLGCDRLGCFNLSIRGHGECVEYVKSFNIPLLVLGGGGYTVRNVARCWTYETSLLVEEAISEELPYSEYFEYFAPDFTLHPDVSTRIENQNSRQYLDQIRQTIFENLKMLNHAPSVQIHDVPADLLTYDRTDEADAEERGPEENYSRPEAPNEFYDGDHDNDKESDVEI

[5] = target: T2, Bromodomain-containing protein 2 (Homo sapiens, UniProt P25440); assay: Inhibition of recombinant BRD2-BD1 (unknown origin) by TR-FRET assay
T2 sequence (P25440 whole entry): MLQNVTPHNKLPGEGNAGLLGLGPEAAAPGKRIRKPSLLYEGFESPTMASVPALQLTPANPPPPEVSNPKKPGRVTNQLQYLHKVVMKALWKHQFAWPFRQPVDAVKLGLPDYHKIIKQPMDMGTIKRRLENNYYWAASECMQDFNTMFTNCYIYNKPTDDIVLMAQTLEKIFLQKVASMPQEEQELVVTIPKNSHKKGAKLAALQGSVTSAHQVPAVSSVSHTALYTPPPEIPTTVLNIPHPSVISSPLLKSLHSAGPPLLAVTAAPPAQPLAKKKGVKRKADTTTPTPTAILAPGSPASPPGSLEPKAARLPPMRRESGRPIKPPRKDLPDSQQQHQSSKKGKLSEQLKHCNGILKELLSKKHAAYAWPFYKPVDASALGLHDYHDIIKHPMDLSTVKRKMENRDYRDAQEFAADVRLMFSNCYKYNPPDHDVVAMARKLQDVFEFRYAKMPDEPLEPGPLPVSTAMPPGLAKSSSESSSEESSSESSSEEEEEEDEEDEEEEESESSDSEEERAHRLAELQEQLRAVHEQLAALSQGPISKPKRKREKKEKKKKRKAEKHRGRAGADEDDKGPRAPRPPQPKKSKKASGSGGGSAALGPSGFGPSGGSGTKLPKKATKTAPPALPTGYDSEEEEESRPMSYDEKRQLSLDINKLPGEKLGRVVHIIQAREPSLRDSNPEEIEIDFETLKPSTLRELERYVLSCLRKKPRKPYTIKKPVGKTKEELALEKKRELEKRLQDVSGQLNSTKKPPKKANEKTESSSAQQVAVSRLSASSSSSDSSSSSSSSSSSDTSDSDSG

[6] = target: T2, Bromodomain-containing protein 2; assay: Inhibition of recombinant BRD2-BD2 (unknown origin) by TR-FRET assay
[7] = target: T3, Bromodomain-containing protein 3 (Homo sapiens, UniProt Q15059); assay: Inhibition of recombinant BRD3-BD1 (unknown origin) by TR-FRET assay
T3 sequence (Q15059 whole entry): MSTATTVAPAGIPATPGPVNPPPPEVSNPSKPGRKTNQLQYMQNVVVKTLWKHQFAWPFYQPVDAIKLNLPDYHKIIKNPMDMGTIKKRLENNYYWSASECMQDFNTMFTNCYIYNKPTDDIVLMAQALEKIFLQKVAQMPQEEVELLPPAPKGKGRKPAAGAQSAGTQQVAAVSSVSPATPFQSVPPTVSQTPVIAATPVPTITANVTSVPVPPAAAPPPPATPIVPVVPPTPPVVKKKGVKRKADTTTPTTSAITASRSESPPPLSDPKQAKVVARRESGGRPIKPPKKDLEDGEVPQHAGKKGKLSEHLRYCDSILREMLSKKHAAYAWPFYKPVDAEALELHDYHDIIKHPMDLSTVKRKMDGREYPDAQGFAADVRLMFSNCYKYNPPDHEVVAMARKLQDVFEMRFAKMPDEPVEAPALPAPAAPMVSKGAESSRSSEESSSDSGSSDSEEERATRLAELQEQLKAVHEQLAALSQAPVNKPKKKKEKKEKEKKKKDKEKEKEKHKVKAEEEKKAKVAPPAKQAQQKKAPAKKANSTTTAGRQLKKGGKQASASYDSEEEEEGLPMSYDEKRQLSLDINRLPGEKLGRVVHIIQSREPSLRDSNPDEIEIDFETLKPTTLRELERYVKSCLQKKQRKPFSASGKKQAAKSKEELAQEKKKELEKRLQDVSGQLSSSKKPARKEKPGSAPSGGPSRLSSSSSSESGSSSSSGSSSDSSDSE

[8] = target: T3, Bromodomain-containing protein 3; assay: Inhibition of recombinant BRD3-BD2 (unknown origin) by TR-FRET assay
[9] = target: T4, Bromodomain testis-specific protein (Homo sapiens, UniProt Q58F21); assay: Inhibition of recombinant BRDT-BD1 (unknown origin) by TR-FRET assay
[10] = target: T4, Bromodomain testis-specific protein; assay: Inhibition of recombinant BRDT-BD2 (unknown origin) by TR-FRET assay

Histone deacetylase 1, sequence (Q13547 whole entry): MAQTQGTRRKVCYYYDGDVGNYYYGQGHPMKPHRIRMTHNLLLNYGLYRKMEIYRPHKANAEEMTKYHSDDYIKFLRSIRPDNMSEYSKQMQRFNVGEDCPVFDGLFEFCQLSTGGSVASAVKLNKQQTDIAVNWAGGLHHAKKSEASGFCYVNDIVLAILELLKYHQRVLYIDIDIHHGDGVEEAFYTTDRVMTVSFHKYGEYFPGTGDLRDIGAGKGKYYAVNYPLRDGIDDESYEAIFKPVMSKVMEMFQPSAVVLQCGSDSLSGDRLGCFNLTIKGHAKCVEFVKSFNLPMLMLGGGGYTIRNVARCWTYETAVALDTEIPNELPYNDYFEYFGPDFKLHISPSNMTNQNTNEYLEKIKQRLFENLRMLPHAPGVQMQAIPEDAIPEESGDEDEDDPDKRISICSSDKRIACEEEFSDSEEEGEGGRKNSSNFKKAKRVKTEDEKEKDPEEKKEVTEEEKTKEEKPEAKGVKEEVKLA

Compound: CC(=O)N1c2ccc(-c3ccc(NC(=O)CCCCCCC(=O)NO)cc3)cc2[C@H](NC(=O)OC(C)C)C[C@@H]1C
- IC50 (Histone deacetylase 1): 50 nM
- IC50 [1]: 250 nM

Compound: Cc1sc2c(c1C)C(c1ccc(Cl)cc1)=N[C@@H](CC(=O)Nc1ccc(C(=O)Nc3ccccc3N)cc1)c1nnc(C)n1-2
- IC50 [2]: 74 nM
- IC50 (Histone deacetylase 1): 290 nM
- IC50 [1]: 720 nM

Compound: Cc1sc2c(c1C)C(c1ccc(Cl)cc1)=N[C@@H](CC(=O)NCc1ccc(/C=C/C(=O)NO)cc1)c1nnc(C)n1-2
- IC50 [2]: 1580 nM
- IC50 (Histone deacetylase 1): > 20000 nM
- IC50 [1]: 1350 nM

Compound: O=C(CCCCCCC(=O)Nc1ccccc1)NO [VORINOSTAT]
- IC50 [3]: 43.1 nM

Compound: COC(c1c(F)cccc1Cl)c1c[nH]c2ncc(-c3c(C)noc3C)cc12 (stereo not drawn)
- IC50 [4]: < 1000 nM

Compound: Cc1sc2c(c1C)C(c1ccc(Cl)cc1)=N[C@@H](CC(=O)NCCCC(=O)Nc1ccccc1N)c1nnc(C)n1-2
- IC50 [3]: 29.6 nM
- viability at 3 µM (U-937): 16.1%
- IC50 (Histone deacetylase): 31.24 nM

Compound: O=C(CCCCCCn1cc(Cc2ccccc2)c2ccccc21)NO
- IC50 (Histone deacetylase 3): 60 nM

Compound: Cc1sc2c(c1C)C(c1ccc(Cl)cc1)=N[C@@H](CC(=O)Nc1ccc(C(=O)NO)cc1)c1nnc(C)n1-2
- IC50 [5]: 11 nM
- IC50 [6]: 11 nM
- IC50 [7]: 11 nM
- IC50 [8]: 11 nM
- IC50 [9]: 11 nM
- IC50 [10]: 11 nM

Compound: Cc1sc2c(c1C)C(c1ccc(Cl)cc1)=N[C@@H](CC(=O)Nc1ccc(NC(=O)CCCCCCC(=O)NO)cc1)c1nnc(C)n1-2
- IC50 [2]: 11000 nM
- IC50 (Histone deacetylase 1): 1110 nM
- IC50 [1]: 4530 nM
